Test results from US20230310441A1, “TREATMENT FOR SCHIZOPHRENIA” (TAKEDA PHARMACEUTICAL COMPANY, priority 2020, published 2023).
Like-named read-outs stand apart in the source and are kept apart here.

Legend:
[1] = Phase 1 FIH study Part 4: plasma pharmacokinetics in patients with stable schizophrenia; format: in vivo, human
Protocol: Part 4 was a double-blind, weekly single dosing, parallel group design in patients with stable schizophrenia.
Participants were randomly assigned 2:1 to receive either Compound (I) or placebo. For the participants receiving Compound (I), a loading dose was administered on Day 1, and a maintenance dose, at half the initial dose, on Days 8, 15, and 22. Participants in the placebo group received placebo on all study dosing days.
Plasma and urine concentrations of Compound (I) and urine concentrations of cortisol and 6β-hydroxycortisol were measured by high performance liquid chromatography with tandem mass spectrometry. One 4 mL blood sample was collected per scheduled assessment. For participants receiving placebo, blood samples were analyzed only at pre-dose and around the time Cmax occurred (as emerging from the measurements of the first dose group) to ensure that no additional participants could have been on active treatment. Serial urine samples were collected for Part 1 cohorts 1-5 and Part 2 cohorts 1-4. Urine samples for participants receiving placebo were not analyzed. Urine samples were collected for the determination of cortisol and 6β-hydroxycortisol for Part 2 cohorts 1-4 and for all patients in Part 4. Samples for participants randomized to placebo were analyzed for these parameters.
Pharmacokinetic parameters were determined from the concentration-time profiles for all evaluable participants. Actual sampling times were used in all computations. pharmacokinetic parameters were calculated using non-compartmental analysis using Phoenix WinNonLin v8.0 or SAS v 9.4.
One participant in the 160/80 mg Compound (I) cohort in Part 4 (MRD study with patients with stable schizophrenia) missed the Day 15 dose. Pharmacokinetic concentrations for Day 22 for this participant were excluded from the mean plasma-concentration time profile and associated pharmacokinetic parameters were excluded from statistical analysis.
One participant in the 160/80 mg Compound (I) cohort in Part 4 (MRD study with patients with stable schizophrenia) terminated the study following dosing on Day 1. The participant's PK parameters were excluded from statistical analysis.
Another participant in the 160/80 mg Compound (I) cohort in Part 4 (MRD study with patients with stable schizophrenia) terminated the study following dosing on Day 22. Accordingly, all PK parameters for the participant other than tmax, Cmax, observed plasma concentration at the end of a dosing interval, AUC24, AUC48, and AUC96 were excluded from summary and statistical analysis.

[2] = Brief Assessment of Cognition in Schizophrenia (BACS) composite score; format: in vivo, human
Protocol: On Day 1 of each treatment period, following study drug administration, and commencing at approximately 2 h post-dose, subjects underwent PD tests for a total of approximately 4 h. Blood samples were collected at defined times after dosing to assess the PK of Compound (I). After the last PK collection at 6 h post-dose, subjects left the clinic. On Day 14 of each Treatment Period, subjects took the second set of PD tests along with a single time point PK collection. Samples for PK were also collected on Day 49 and at the final visit of the second treatment period. PD testing were performed in 3 blocks, separated by 2 breaks. The first block comprised the Grip Effort Task, the Progressive Ratio Test, and the Brief Assessment of Cognition in Schizophrenia (BACS). The BACS is a reliable and sensitive test battery specifically designed to efficiently assesses important cognitive deficits in patients with schizophrenia; accordingly, the BACS is suited for repeated testing in a clinical trial setting (Keefe et al., 2004). […] The following domains of cognitive function found to be consistently impaired in schizophrenia were assessed in this study: verbal memory; working memory; motor function; attention and processing speed; verbal fluency; and executive function. A composite score was calculated from each of the subset scores and used as a single endpoint for the assessment.
The BACS consisted of items across 6 subtests: Verbal Memory, Digit Sequencing, Token Motor, Verbal Fluency, Symbol Coding, and Tower of London.
The observed BOLD signal was summarized (N, mean, median, SD, minimum, and maximum) by treatment (Compound (I) (overall and by dose) and placebo) and time. The BACS composite score was summarized for baseline, post-dose, and change from baseline by treatment, dose, and time.
Each of the primary PD measures was analyzed using a Bayesian normal linear model with effects for sequence, period, treatment, time (as a categorical variable), the treatment-by-time interaction, subject within treatment sequence, and baseline (for BACS only). For the BOLD fMRI, the observed value was the response variable in the model. For the BACS, the observed and the change from baseline were modeled separately. Missing values were not imputed and were not included in the model under a missing at random assumption. A diffuse normal distribution with mean zero and variance 106 was used as a prior for the regression coefficients and a diffuse inverse gamma with shape and scale parameters of 0.01 for the residual variance. […]

[3] = stable schizophrenia, oral, 160/80 mg, Day 22, N 14

With `C[C@H](NC(=O)Cn1nnc2ccccc2c1=O)c1ccc(OC(F)(F)F)cc1` [Compound (I), (S)-2-(4-oxobenzo[d][1,2,3]triazin-3(4H)-yl)-N-(1-(4-(trifluoromethoxy)phenyl)ethyl)acetamide] the “steady-state mean t1/2z” value ([1]; Part 4 MRD, schizophrenia participants) was 334 h, the “peak systemic exposure lower in schizophrenia participants compared with healthy participants” value ([1]; Part 4 vs healthy) was 23-30% and the “total systemic exposure lower for schizophrenia participants compared with healthy participants” value ([1]; Part 4 vs healthy) was 22-27%. It also gave a Cmax ([1]; human, plasma, oral, Part 4 MRD, 160/80 mg, up to 168 h post-dose, read-out: Mean Cmax (SD)) of 1270 ng/mL, a Tmax ([1]; human, plasma, oral, Part 4 MRD, schizophrenia patients, read-out: median tmax) of 1.8 h and an AUC(0-t) ([1]; human, plasma, po, stable schizophrenia, oral, 160/80 mg, Day 1, N 15) of 149 µg·h/mL. For the same molecule, the AUC ([1]; human, plasma, po, stable schizophrenia, oral, 160/80 mg, Day 1, N 15, read-out: AUC24 (mean)) was 20.4 µg·h/mL, the AUC ([1]; human, plasma, po, stable schizophrenia, oral, 160/80 mg, Day 1, N 15, read-out: AUC96 (mean)) was 90.4 µg·h/mL and the AUC ([1]; human, plasma, po, stable schizophrenia, oral, 160/80 mg, Day 1, N 15, read-out: AUCτ (mean)) was 149 µg·h/mL. For the same molecule, the Cmax ([1]; human, plasma, po, stable schizophrenia, oral, 160/80 mg, Day 1, N 15, read-out: Cmax (mean)) was 1270 ng/mL, the Tmax ([1]; human, plasma, po, stable schizophrenia, oral, 160/80 mg, Day 1, N 15, read-out: tmax (median)) was 2 h and the AUC(0-t) ([1]; human, plasma, po, stable schizophrenia, oral, 160/80 mg, Day 22, N 14) was 660 µg·h/mL. The AUC ([1]; human, plasma, po, stable schizophrenia, oral, 160/80 mg, Day 22, N 14, read-out: AUC24 (mean)) was 35.5 µg·h/mL, the AUC ([1]; human, plasma, po, stable schizophrenia, oral, 160/80 mg, Day 22, N 14, read-out: AUC96 (mean)) was 140 µg·h/mL and the AUC ([1]; human, plasma, po, stable schizophrenia, oral, 160/80 mg, Day 22, N 14, read-out: AUCτ (mean)) was 227 µg·h/mL. For the same molecule, the Cmax ([1]; human, plasma, po, stable schizophrenia, oral, 160/80 mg, Day 22, N 14, read-out: Cmax (mean)) was 1880 ng/mL, the Tmax ([1]; human, plasma, po, stable schizophrenia, oral, 160/80 mg, Day 22, N 14, read-out: tmax (median)) was 1.8 h and the Vd/F ([1]; human, plasma, stable schizophrenia, oral, 160/80 mg, Day 22, N 14, read-out: Vz/F (mean)) was 172 L. The “CL/F (mean)” value [1, 3] was 365.5 mL/h, the “Cav,ss (mean)” value [1, 3] was 1352.6 ng/mL and the “Ctrough (mean)” value [1, 3] was 950.4 ng/mL. The “t1/2z (mean)” value [1, 3] was 333.8 h, the “posterior mean (SD) for the difference to placebo, BACS composite score” value (from here on “posterior mean (SD) for the difference”) ([2]; Day 14, 40 mg) was −0.23 (2.95) and the “posterior mean (SD) for the difference” value ([2]; Day 14, 160 mg) was −0.84 (1.87). The “posterior mean (SD) for the difference” value ([2]; Day 14, overall) was −0.61 (1.50) and the BACS performance ([2]; phase 2) was “not seen to be affected”.
